Test results taken from patent US10519207B2, “Compositions and methods for treating opioid tolerance” (priority 2015, dated 2019).

Assays:
IL-10 mRNA = assay: qPCR of IL-10 mRNA in vlPAG; format: in vivo, rat; conditions: chronic morphine with or without XPro1595
Experimental: (§1) Gene expression is reported as the ratio of the gene of interest to Gapdh, and are normalized to the Vehicle+Saline condition. Changes in mRNA between groups were assessed using an ANOVA on ranks (Kruskal-Wallis), and Mann Whitney U post-hoc comparisons (SPSS). Data are expressed as median; p<0.05 was considered significant.

EAAC1 mRNA = assay: In situ hybridization of neuronal EAAC1 mRNA in caudal vlPAG; format: in vivo, rat
TNF mRNA = assay: qPCR of TNF mRNA in vlPAG; format: in vivo, rat; conditions: chronic morphine with or without XPro1595
Experimental: as §1

IL-6 mRNA = assay: qPCR of IL-6 mRNA in vlPAG; format: in vivo, rat; conditions: chronic morphine with or without XPro1595
Experimental: as §1

solTNF = target: T1, solTNF (Mus musculus, UniProt P06804); conditions: systemic delivery; cited from earlier work
T1 construct: There are two active forms of TNF, soluble-TNF (solTNF) and transmembrane-TNF (tmTNF); host or cells: endogenous TNF of EAE animals
T1 sequence (P06804 80-235 limits assumed): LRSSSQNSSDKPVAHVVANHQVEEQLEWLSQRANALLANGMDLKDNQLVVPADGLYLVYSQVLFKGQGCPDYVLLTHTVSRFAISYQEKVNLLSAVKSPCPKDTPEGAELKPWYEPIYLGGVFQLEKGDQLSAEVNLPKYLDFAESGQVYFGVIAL

TNF = conditions: morphine tolerant animals; cited from earlier work
TNF, sequence (P16599 80-235 limits assumed): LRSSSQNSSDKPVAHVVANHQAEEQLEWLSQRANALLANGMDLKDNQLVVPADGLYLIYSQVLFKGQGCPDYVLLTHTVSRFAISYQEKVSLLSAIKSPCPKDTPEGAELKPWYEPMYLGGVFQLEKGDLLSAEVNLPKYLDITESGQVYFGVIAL

soluble TNF (solTNF) = target: T2, soluble TNF (solTNF) (Rattus norvegicus, UniProt P16599); format: in vivo; conditions: 24 and 72 hours after intra-PAG administration
T2 construct: soluble TNF which is formed after cleavage of tmTNF by ADAM17/TNF-αlpha Converting Enzyme (TACE); from tissue; host or cells: living rat, ventrolateral periaqueductal gray (vlPAG) / CNS
T2 sequence (P16599 80-235): as the sequence (P16599 80-235 limits assumed) above
Experimental: Male Sprague Dawley rats (250-350 g; Charles River; MA) were pair-housed on a 12:12 hour light:dark cycle (lights on at 7:00 am) with ad libitum access to food and water. The Institutional Animal Care and Use Committee at Georgia State University approved all studies.
Rats were implanted with bilateral cannula aimed at the ventrolateral PAG (vlPAG) and received bilateral infusions of lenti-DN-TNF or lenti-GFP while under surgical anesthesia.

With CN1CC[C@]23c4c5ccc(O)c4O[C@H]2[C@@H](O)C=C[C@H]3[C@H]1C5 [morphine] the “vlPAG IL-10 mRNA” value (IL-10 mRNA) was “No significant change”, the “vlPAG EAAC1 mRNA expression” value (EAAC1 mRNA; systemic morphine for 3 days) was “No significant effect” and the “vlPAG TNF gene expression” value (TNF mRNA) was “not statistically significant”. For the same compound, the “vlPAG IL-6 mRNA” value (IL-6 mRNA) was “No significant change”.
In the case of etanercept, the “outcome in EAE” value (solTNF) is given as “neither therapeutic nor neuroprotective” and the “effect on acute morphine inhibition of tail flick reflex” value (TNF) is given as “restores the ability of morphine to acutely inhibit tail flick reflex”.
In the case of lipopolysaccharide [LPS], the “vlPAG EAAC1 mRNA” value (EAAC1 mRNA; chronic vlPAG microinfusions of LPS) is reported as “did not alter” and the “baseline paw withdrawal latencies” value (soluble TNF (solTNF)) is reported as “no effect”.
